The results in this text go back to patent publication US20250276993A1, “PSEUDO-DISACCHARIDE COMPOUNDS” (UNIVERSITEIT LEIDEN, priority 2022, published 2025).

Assay type in all cases: biochemical
The target of assay [1] is T1, HPSE (Homo sapiens, UniProt Q9Y251).
T1 sequence (Q9Y251 36-109 limits assumed): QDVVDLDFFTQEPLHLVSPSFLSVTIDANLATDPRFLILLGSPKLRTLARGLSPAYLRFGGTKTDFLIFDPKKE
T1 sequence (Q9Y251 158-543 limits assumed): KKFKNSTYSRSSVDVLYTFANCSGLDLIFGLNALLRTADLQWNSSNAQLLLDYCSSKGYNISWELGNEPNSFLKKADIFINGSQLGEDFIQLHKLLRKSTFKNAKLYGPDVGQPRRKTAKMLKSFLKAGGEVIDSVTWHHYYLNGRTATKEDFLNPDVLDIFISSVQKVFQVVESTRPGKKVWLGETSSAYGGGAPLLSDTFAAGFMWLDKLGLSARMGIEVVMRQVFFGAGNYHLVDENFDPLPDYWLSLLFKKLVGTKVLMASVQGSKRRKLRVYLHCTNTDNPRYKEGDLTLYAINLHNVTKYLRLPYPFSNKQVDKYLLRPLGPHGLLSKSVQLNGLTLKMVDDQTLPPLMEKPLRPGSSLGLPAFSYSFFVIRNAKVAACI
The assay is described as follows: HSPG digest assay, recombinant HPSE. The protocol: ECM coated 35 mm culture dishes containing ^35S labelled HS were prepared as previously described (Vlodavsky et al., Curr. Protoc. Cell. Biol., Chapter 10, Unit 10, 14). Briefly, bovine corneal endothelial cells were plated at an initial density of 2×10^5 cells/ml, with 4% dextran T-40 (Sigma) included in the growth medium. Na2^35SO4 (25 μCi/ml) was added to the incubation medium on days 2 and 5 after seeding. On day 12, subendothelial ECM is exposed by dissolving the cells with PBS containing 0.5% Triton X-100 and 20 mM NH4OH, followed by four washes with PBS. For HS-degradation assays, ECM coated dishes were incubated with 200 ng recombinant HPSE in 1 mL reaction mixture (10 mM buffer Phosphate-Citrate pH 6.0, 50 mM NaCl, 1 mM DTT, 1 mM CaCl2) containing HPSE inhibitors or DMSO control. Plates were incubated at 37° C. for 5 h, then assay medium collected and applied to a 0.9×30 cm Sepharose 6B size exclusion column. The Sepharose 6B column was eluted with PBS, and ^35S radioactivity of 0.2 mL fractions quantitated using a liquid scintillation analyzer (Packard BioScience). Digest assays with U87 cell lysates were carried out in a similar fashion, except plates were incubated for 18 h with cell extracts prepared from 1×10^6 U87 glioma cells lysed by 3× freeze/thaw cycles.
The compounds of the invention were assessed against HPSE degradation of bona fide HSPGs in a physiologically relevant ECM-like environment. Cultured bovine corneal […] cells secrete a subendothelial basement membrane material rich in HSPGs, and their growth in the presence of ^35SO4^2− results in ^35S radiolabeled HSPGs (Vlodavsky et al., Curr Protoc Cell Biol, Chapter 10, Unit 10, 4, 2001). H^35S chains attached to these HSPGs are detectable after solubilization by HPSE, with enzyme inhibition leading to a corresponding reduction of signal.

The target in a further assay is T2, GUSB (Homo sapiens, UniProt P08236).
T2 construct: Platelet lysates contain complex mixtures of overlapping enzyme activities, including both endo- and exo-β-glucuronidases HPSE and GUSB; endogenous in cells; host or cells: human platelet lysates
T2 sequence (P08236 23-651): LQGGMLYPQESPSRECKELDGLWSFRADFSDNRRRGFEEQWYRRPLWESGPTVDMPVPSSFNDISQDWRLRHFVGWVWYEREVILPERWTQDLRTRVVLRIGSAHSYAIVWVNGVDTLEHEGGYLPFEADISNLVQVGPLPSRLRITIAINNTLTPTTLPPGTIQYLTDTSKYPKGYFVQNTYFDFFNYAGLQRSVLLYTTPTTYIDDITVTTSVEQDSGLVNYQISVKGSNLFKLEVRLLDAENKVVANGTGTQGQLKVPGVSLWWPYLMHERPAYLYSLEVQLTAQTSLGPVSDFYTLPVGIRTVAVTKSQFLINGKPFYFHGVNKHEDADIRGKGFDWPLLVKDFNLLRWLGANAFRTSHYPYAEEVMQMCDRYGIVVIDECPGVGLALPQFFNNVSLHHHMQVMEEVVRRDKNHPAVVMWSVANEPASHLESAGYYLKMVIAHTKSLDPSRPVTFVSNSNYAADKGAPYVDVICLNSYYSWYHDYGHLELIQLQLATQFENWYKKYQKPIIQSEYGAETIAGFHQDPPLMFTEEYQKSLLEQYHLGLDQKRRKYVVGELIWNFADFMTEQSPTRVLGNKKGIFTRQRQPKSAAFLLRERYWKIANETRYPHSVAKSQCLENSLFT
Description: cABPP Assay 2, platelet lysates, GUSB. The note with it: preincubation with inhibitor. Here is the method: For further competitive ABPP studies, a working protein mixture was prepared by mixing the platelet lysates (87.5 μL), buffer (pH 5.0, 150 mM, 157.5 μL) and 3 M NaCl solution (35 μL). The enzymatic reactions were carried out at a constant concentration of read-out 7 (100 nM, final). For each inhibitor 2, 12 and 13, triplicate sets of ten 0.5 mL low protein binding Eppendorf tubes were prepared. Working solutions of each inhibitor (1% DMSO (w/v), 5 μL) in a range of ten concentrations (100, 50, 25, 12.5, 6.3, 3.1, 1.6, 0.8, 0.4, 0 μM) were prepared with MilliQ water and kept on ice. The working protein mixture (8 μL) was added in each protein low binding 0.5 mL Eppendorf tube, and 1 μL of inhibitor solution was added while on ice.
Further cABPP studies were undertaken using platelet lysates to provide a more physiologically realistic environment. Platelet lysates contain complex mixtures of overlapping enzyme activities, including both endo- and exo-β-glucuronidases HPSE and GUSB respectively, thus provide a challenging environment to test inhibitor specificity.

In assay [2] the target is T1, HPSE. Description: cABPP Assay 1, recombinant HPSE. As to conditions: 1 h preincubation at 37° C., pH 5.5, 100 nM ABP 7.

As to `CC(=O)NC1C(O)[C@H](O)C(CO)O[C@@H]1O[C@H]1C(O)C(O)[C@@H]2OC2C1C(=O)O` (stereo partly drawn) [Compound 2, 4-O-(2-N-acetyl-2-deoxy-D-glucopyranosyl)-glucurono-cyclophellitol], at HPSE [1] (200 ng recombinant HPSE, pH 6.0, 5 h), the “inhibition of HPSE degradation of 35S-labelled HSPGs” value is “robust, dose dependent inhibition”. For the same molecule, on HPSE [1] (HSPG digest, recombinant HPSE), the “concentration giving comparable levels of inhibition” value stood at 1 µM. The “effect on GUS signals” value on GUSB is reported as “without altering GUS signals”. Besides, the “HPSE inhibition (abrogation of labelling by ABP 7)” value at HPSE [2] is recorded as “inhibited HPSE at nanomolar concentrations”.
